Results as given in patent publication US20200163897A1, “METHODS OF TREATING LIVER DISEASES ASSOCIATED WITH PORTAL TRACT OR PERIPORTAL INFLAMMATION” (The Regents of the University of California, priority 2017, published 2020).

Assays:
[1] = test system: obese children who had steatosis; settings: after vitamin E 400-1000 IU/day for 4-10 months, cited from earlier work
tissue transglutaminase = molecular target: T1, tissue transglutaminase (Rattus norvegicus, UniProt Q9WVJ6); settings: via inhibition of tissue transglutaminase; cited from earlier work
T1 construct: host or cells: liver of CCl4-treated animals (in vivo)
T1 sequence (Q9WVJ6 1-686): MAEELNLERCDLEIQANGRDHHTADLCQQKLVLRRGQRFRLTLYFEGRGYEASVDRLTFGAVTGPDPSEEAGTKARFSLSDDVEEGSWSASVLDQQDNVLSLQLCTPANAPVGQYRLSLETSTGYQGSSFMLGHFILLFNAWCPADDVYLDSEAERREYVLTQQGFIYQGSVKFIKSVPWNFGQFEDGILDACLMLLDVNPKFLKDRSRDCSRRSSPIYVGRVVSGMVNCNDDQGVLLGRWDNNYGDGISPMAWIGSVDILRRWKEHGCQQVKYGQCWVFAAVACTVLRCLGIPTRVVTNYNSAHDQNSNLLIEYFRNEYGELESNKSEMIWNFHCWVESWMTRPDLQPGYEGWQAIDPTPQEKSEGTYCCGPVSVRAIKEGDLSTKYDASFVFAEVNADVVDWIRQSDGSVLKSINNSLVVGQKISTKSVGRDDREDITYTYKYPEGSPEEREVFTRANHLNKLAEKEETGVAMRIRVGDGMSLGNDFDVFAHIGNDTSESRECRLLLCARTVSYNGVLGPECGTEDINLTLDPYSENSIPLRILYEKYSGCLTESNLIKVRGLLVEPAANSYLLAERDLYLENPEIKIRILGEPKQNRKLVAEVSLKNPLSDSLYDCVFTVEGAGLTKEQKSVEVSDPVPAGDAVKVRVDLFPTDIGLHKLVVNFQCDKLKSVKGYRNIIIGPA

[2] = test system: obese individuals with NASH; settings: 4-12 weeks, no reported change in body mass index; cited from earlier work
[3] = test system: acetaminophen-induced hepatocellular injury; settings: mice and humans; cited from earlier work
children with NASH = settings: cited from earlier work
leukocyte cystine = settings: delivery to the small intestine; cited from earlier work
in vivo = assay: in vivo; set-up: species or system rats; settings: rat, 20 mg/kg
Source text: Samples were taken from the portal vein (PV) and jugular vena cava (JVC) in rats that were either pre-treated with or naïve to cysteamine therapy.
The portal vein delivers blood, and therefore drug, directly to the liver where it diffuses into the periportal region. The concentration of drug in the periportal region is therefore at a maximum level and is higher than the drug concentration in the hepatic lobular region (which drains into the hepatic central veins and then into the JVC). This is possible because as blood, and therefore drug, traverses through the hepatic lobule away from the portal vein its contents will undergo some degree of first-pass metabolism. It is postulated here, that patients with type 2 pediatric NASH, receiving a greater drug exposure at the site of maximal disease (i.e., periportal region; recall Type 2 NASH is characterized by portal inflammation), are more likely to respond to drug therapy than children with type 1 NASH.

In the case of vitamin E, the “mean AST levels” value ([1]; decreased from 104±61 IU/L, P<0.002) is listed as 33±11 IU/L and the “mean ALT levels” value ([1]; decreased from 175±106 IU/L, P<0.01) is listed as 40±26 IU/L.
For `NCCSSCCN` [Cystamine], the “liver fibrosis induced by carbon tetrachloride” value (tissue transglutaminase) is listed as “ameliorate liver fibrosis”.
For `CC(=O)N[C@@H](CS)C(=O)O` [N-acetylcysteine], the “aminotransferase levels and gamma-GT” value [2] is given as “improvement”.
In the case of `NCCS` [cysteamine], the “prevention of acetaminophen-induced hepatocellular injury” value [3] is listed as “effective”, the “blood liver inflammation markers (ALT, AST, GGT)” value (children with NASH; children with NASH, 6 and 12 months treatment) is listed as “statistically significant improvement” and the “primary endpoint of improved histology” value (children with NASH; placebo controlled 12 month study group) is listed as “not achieved”. The “chance of histological improvement compared with the placebo group” value (children with NASH; post-hoc analysis, children <65 kg body weight, placebo controlled 12 month study) was 4 fold, the “decrease in leukocyte cystine, time after treatment” value (leukocyte cystine) was “within an hour” and the Tmax (in vivo) was 5 to 10 min.
